Like-named read-outs stand apart in the source and are kept apart here.

Data set [1] deals with HIV-1 IIIb. The data set is described as follows: Antiviral assay in MT-2 cells. It counts as cell-based. The note with it: Human immunodeficiency virus 1, IIIB, MT2; Table S9 footnote b; read-out: EC50 previously determined (start of resistance selection at twice the EC50). As to the method: For the antiviral assay utilizing MT-2 and MT-4 cells, 50 μl of a 2× test concentration of 5-fold serially diluted compound in culture medium with 10% FBS was added to each well of a 96-well plate (9 concentrations) in triplicate. MT-2 and MT-4 cells were infected with HIV-1 IIIb at a multiplicity of infection (MOI) of 0.01 for 3 h. Fifty microliters of infected cell suspension in culture medium with 10% FBS (∼1.5 × 10^4 cells) then was added to each well containing 50 μl of diluted compound. The plates were then incubated at 37°C for 5 days. After 5 days of incubation, 100 μl of CellTiter-Glo reagent (Promega Biosciences, Inc., Madison, WI) was added to each well containing MT-2 or MT-4 cells. Cell lysis was carried out by incubation at room temperature for 10 min and chemiluminescence was read. For compound cytotoxicity assessment, the protocol was identical except that uninfected cells were used and compounds were serially diluted 3-fold.

In data set [2] the test system is inhibitor-selected HIV-1 IIIb passages. The data set is described as follows: Phenotypic profile of selected HIV-1 passages. It counts as cell-based. To be noted: for EC50: Human immunodeficiency virus 1, IIIB.
Data set [3] concerns NRTI-, NNRTI- and PI-Resistant HIV-1 Mutants. Kind of data set: Antiviral activity against NRTI-, NNRTI- and PI-resistant HIV-1 mutants. It counts as cell-based. To be noted: for EC50: Human immunodeficiency virus 1, WT, Table S7.
The subject of data set [4] is HIV-1 IIIb. Kind of data set: HIV breakthrough selection in MT-2 cells. To be noted: MT-2, HIV-1 IIIb; FTC 4× EC95, EVG 5× EC95, BIC and DTG 2.5× and 5× EC95; up to day 32.
For another data set, the system named is HIV-1 BaL. To be noted: primary CD4+ T-cells, 35 days, drug at tissue culture equivalent clinical Cmin (FTC 160 × EC50).
The subject of data set [5] is INSTI-resistant HIV-1 mutants (HXB2). Kind of data set: microbe, parasite or virus in culture. It counts as cell-based.
For data set [6], the system named is HIV-1 integration in MT-2 cells (HIV-1 IIIb). To be noted: relative to DMSO.
Procedure: Quantification of 2-long terminal repeat (LTR) circles, late reverse transcription products, and integration junctions was adapted from a previously described method ([30]). […] Three hours after viral adsorption, the infected cells were washed twice with 20 ml of RPMI 1640 medium containing 10% FBS and antibiotics and seeded in 6-well plates in 2 ml of culture medium at 1 × 10^6 cells per well. […] These plates were incubated at 37°C for either 12 h (for late reverse transcription product quantification) or 24 h (for 2-LTR circle and Alu-LTR product quantification), after which time the cells were harvested for total DNA isolation. DNA was extracted from each well using the QIAamp DNA minikit (Qiagen, Valencia, CA) and collected as a 100-μl eluate. TaqMan real-time PCR-quantified 2-LTR junctions (2-LTR circles), late reverse transcription products, and integration junctions (Alu-LTR) were normalized to the level of host globin gene in each sample. Quantification by PCR was performed on the ViiA 7 real-time PCR system (Life Technologies, Grand Island, NY).
The nature of data set [7]: Cytotoxicity in AD38 cells. To be noted: human.
Another data set concerns HBV Production. The data set is described as follows: microbe, parasite or virus in culture. To be noted: Hepatitis B virus.
Another data set can be described thus: in vitro. The note with it: human, CC50 in Primary Human Hepatocytes.
Where [8] appears, read: 480 h, selected virus EVG P2 (day 20, 7.2 nM).
Setting [9] is: selected virus BIC P3 (day 47, 6 nM).
The mark [10] stands for this setting: selected virus BIC P5 (day 71, 12 nM).
Setting [11] is: selected virus BIC P6 (day 86, 24 nM).
[12] abbreviates: selected virus BIC P8 (day 156, 96 nM).
The mark [13] stands for this setting: selected virus BIC P9 (day 181, 192 nM).
The mark [14] stands for this setting: selected virus BIC P10 (day 234, 384 nM).
Setting [15] is: selected virus DTG P3Lo (day 59, 6.4 nM).
Setting [16] is: selected virus DTG P4 (day 87, 9.6 nM).
Setting [17] is: selected virus DTG P5 (day 97, 14.4 nM).
Where [18] appears, read: selected virus DTG P7 (day 139, 32.4 nM).
Setting [19] is: selected virus DTG P9 (day 174, 72.9 nM).
[20] abbreviates: selected virus DTG P10 (day 202, 109.4 nM).
[21] abbreviates: selected virus EVG P4 (day 41, 28.8 nM).
Where [22] appears, read: selected virus EVG P6 (day 56, 115 nM).
[23] abbreviates: selected virus EVG P7 (day 67, 230 nM).
Where [24] appears, read: selected virus EVG P9 (day 94, 922 nM).
Setting [25] is: selected virus EVG P10 (day 119, 1843 nM).
Setting [26] is: HIV-1 IIIb-infected MT-2, compound >20-fold EC50, 24 h.

On to `COc1cc2c(cc1Cc1cccc(Cl)c1F)c(=O)c(C(=O)O)cn2[C@H](CO)C(C)C` [EVG, elvitegravir], for which the EC50 was determined as 1.8 nM in the data set with HIV-1 IIIb [1]; 17.8 nM in data set [2] (setting [8]); 2.1 nM in data set [2] (HIV-1-IIIb (unselected)); 5.1 nM in data set [2] (setting [9]); 8.3 nM in data set [2] (setting [10]); 7.8 nM in data set [2] (setting [11]). Moreover, the EC50 amounted to 33.6 nM in [2] (setting [12]); 55 nM in [2] (setting [13]); 33 nM in [2] (setting [14]); 1.7 nM in [2] (setting [15]); 5 nM in [2] (setting [16]); 9.3 nM in [2] (setting [17]). In addition, the concentration for a half-maximal effect (EC50) in data set [2] (setting [18]) was found to be 15.5 nM; in data set [2] (setting [19]), 25.1 nM; in data set [2] (setting [20]) it was 69.2 nM; in data set [2] (setting [21]), 30.2 nM; in [2] (setting [22]), 48.9 nM; in [2] (setting [23]), 203 nM. Also, the values for the EC50 in [2] (setting [24]), in data set [2] (setting [25]) and in [3] were 296 nM, 246 nM and 2.5 ± 1.5 nM, respectively. In addition, in the data set on HIV-1 IIIb [4], the “day postinfection of HIV-1 breakthrough” value was determined as 22 days. In the data set on HIV-1 BaL, the “Frequency of Viral Breakthrough with RAMs” value (from here on “Frequency”) amounted to 54%. Further, the “p24+ Wells” value with HIV-1 BaL is reported as 23/24.

Take `O=C1Nc2ccc(Cl)cc2[C@@](C#CC2CC2)(C(F)(F)F)O1` [EFV, efavirenz]: the EC50 amounted to 1.5 ± 0.3 nM in [5] (Human immunodeficiency virus 1, HXB2, IN mutant E92Q); 1.5 ± 0.4 nM in data set [5] (Human immunodeficiency virus 1, HXB2, IN mutant E92Q/N155H); 1.9 ± 0.4 nM in data set [5] (Human immunodeficiency virus 1, HXB2, IN mutant E138K/Q148K); 1.5 ± 0.3 nM in data set [5] (Human immunodeficiency virus 1, HXB2, IN mutant G140S/Q148R); 1.1 ± 0.4 nM in data set [5] (Human immunodeficiency virus 1, HXB2, IN mutant M50I (BIC/DTG selection)); 1 ± 0.3 nM in data set [5] (Human immunodeficiency virus 1, HXB2, IN mutant M50I/R263K (BIC selection)). The EC50 in data set [5] (Human immunodeficiency virus 1, HXB2, IN mutant M50I/S119R/R263K (DTG selection)) came out at 3.2 ± 1.8 nM; in [5] (Human immunodeficiency virus 1, HXB2, IN mutant N155H), 1.6 ± 0.05 nM; in [5] (Human immunodeficiency virus 1, HXB2, IN mutant N155H/Q148R), 2.2 ± 0.8 nM; in [5] (Human immunodeficiency virus 1, HXB2, IN mutant Q148R), 1.7 ± 0.1 nM; in [5] (Human immunodeficiency virus 1, HXB2, IN mutant R263K (BIC/DTG selection), Table 7) it was 1 ± 0.4 nM; in data set [5] (Human immunodeficiency virus 1, HXB2, IN mutant R263K, Table 6) it was 1.8 ± 0.3 nM. The half-maximal effective concentration (EC50) is 2.1 ± 1.1 nM in data set [5] (Human immunodeficiency virus 1, HXB2, IN mutant S119R (DTG selection)); 2.1 ± 1 nM in data set [5] (Human immunodeficiency virus 1, HXB2, IN mutant S119R/R263K (DTG selection)); 2.2 ± 1.1 nM in data set [5] (Human immunodeficiency virus 1, HXB2, IN mutant S153Y (DTG selection)); 2 ± 0.7 nM in [5] (Human immunodeficiency virus 1, HXB2, IN mutant S153Y/R263K (DTG selection)); 1.7 ± 0.1 nM in data set [5] (Human immunodeficiency virus 1, HXB2, IN mutant Y143R); 1.9 ± 0.3 nM in data set [5] (Human immunodeficiency virus 1, HXB2, WT (HXB2), Table 6, read-out: EC50). The EC50 in [5] (Human immunodeficiency virus 1, HXB2, WT (HXB2), Table 7, read-out: EC50) was found to be 1.2 ± 0.4 nM; in data set [2] (setting [8]), 3 nM; in [2] (HIV-1-IIIb (unselected)) it was 1.6 nM; in [2] (setting [9]), 1.6 nM; in [2] (setting [10]), 1.2 nM; in data set [2] (setting [11]) it was 1.3 nM. Also, the concentration for a half-maximal effect (EC50) in data set [2] (setting [12]) was found to be 1.7 nM; in data set [2] (setting [13]) it was 2.8 nM; in data set [2] (setting [14]), 2.7 nM; in data set [2] (setting [15]), 1.2 nM; in [2] (setting [16]), 1.8 nM; in data set [2] (setting [17]) it was 1.7 nM. The EC50 in data set [2] (setting [18]) was 2.3 nM; in data set [2] (setting [19]), 2.1 nM; in data set [2] (setting [20]), 2.8 nM; in data set [2] (setting [21]), 2.8 nM; in [2] (setting [22]) it was 2.4 nM; in data set [2] (setting [23]) it was 3.6 nM. In addition, the EC50 in [2] (setting [24]) was found to be 3.2 nM; in [2] (setting [25]), 2 nM; in data set [3] it was 1.2 ± 0.4 nM. In addition, the “Fold-Resistance Relative to HIV-1 IIIb” value was determined as 1 fold in data set [2] (HIV-1-IIIb (reference)); 1 fold in data set [2] (selected virus BIC P3); 0.8 fold in data set [2] (selected virus BIC P5); 0.8 fold in data set [2] (selected virus BIC P6); 1.1 fold in data set [2] (selected virus BIC P8); 1.8 fold in [2] (selected virus BIC P9). In addition, the “Fold-Resistance Relative to HIV-1 IIIb” value was 1.7 fold in data set [2] (selected virus BIC P10); 0.8 fold in data set [2] (selected virus DTG P3Lo); 1.1 fold in data set [2] (selected virus DTG P4); 1.0 fold in [2] (selected virus DTG P5); 1.4 fold in [2] (selected virus DTG P7); 1.3 fold in [2] (selected virus DTG P9). Further, the “Fold-Resistance Relative to HIV-1 IIIb” value in [2] (selected virus DTG P10) stood at 1.8 fold; in [2] (selected virus EVG P2), 1.8 fold; in [2] (selected virus EVG P4), 1.7 fold; in data set [2] (selected virus EVG P6), 1.5 fold; in [2] (selected virus EVG P7), 2.2 fold; in [2] (selected virus EVG P9), 2.0 fold. In data set [2] (selected virus EVG P10), the “Fold-Resistance Relative to HIV-1 IIIb” value is recorded as 1.2 fold. In addition, the “EC50 Fold Change Relative to WT” value in data set [3] (NNRTI resistant L100I K103N) is over 83 fold change. Besides, the “Frequency” value in the data set on HIV-1 BaL turned out to be 17%. Further, the “p24+ Wells” value in the data set on HIV-1 BaL is 2/12. Moreover, the “Late reverse transcription products (fold change)” value in data set [6] (HIV-1 IIIb-infected MT-2, compound >20-fold EC50, 12 h) is reported as 0.21 ± 0.07 fold change. Also, the “Alu-LTR integration junctions (fold change)” value in data set [6] (setting [26]) is listed as 0.10 ± 0.05 fold change. For the same compound, the “Integration failure of 2-LTR circles (fold change)” value in [6] (setting [26]) was found to be 0.05 ± 0.04 fold change.

As to `C[C@H](Cn1cnc2c(N)ncnc21)OCP(=O)(O)O` [TFV, tenofovir], the values for the EC50 (in data set [3]; in the data set on HBV Production) were 3720 nM and 360 nM, respectively. Moreover, in [3] (NRTI resistant 6TAMs), the “EC50 Fold Change Relative to WT” value came out at 7.1 fold change. Besides, the CC50 at 5 days in [7] is over 50 µM.

Compound `Nc1nc(=O)n([C@@H]2CS[C@H](CO)O2)cc1F` [FTC, emtricitabine] had a 50% effective concentration (EC50) in data set [3] of 385 ± 225 nM. The “EC50 Fold Change Relative to WT” value in data set [3] (NRTI resistant 6TAMs) is given as 10.8 fold change. In addition, the CC50 at 5 days in data set [7] is over 50 µM. Also, a half-maximal effect in the data set on HBV Production (EC50) was put at 20 nM. In addition, the “day postinfection of HIV-1 breakthrough” value with HIV-1 IIIb [4] was 7 days. In addition, in the data set on HIV-1 BaL, the “Frequency” value worked out at 58% and the “p24+ Wells” value is listed as 14/24.

Take `COc1ccc(C[C@H](N)C(=O)N[C@H]2[C@@H](O)[C@H](n3cnc4c(N(C)C)ncnc43)O[C@@H]2CO)cc1` [Puromycin]: the values for the CC50 in the data set “in vitro” (Donor 1) and in the data set “in vitro” (Donor 2) were 1200 nM and 830 nM, respectively.

These data come from publication PMC5118987 (Antimicrobial Agents and Chemotherapy, 2016).
